Like-named read-outs stand apart in the source and are kept apart here.

Data set [1] can be described thus: log P determination by HPLC on reversed-phase columns (C 18), analogous to OECD Guideline 117. Conditions: for chromatographic logP: reversed-phase HPLC column (C 18); for logP[a]: method [a]; for logP[b]: method [b]. Format: physicochemical. On the procedure: The log P values were determined analogously to OECD Guideline 117 (EC Directive 92/69/EEC) by HPLC (high-performance liquid chromatography) using reversed-phase columns (C 18), by the following methods: [a] The LC-MS determination in the acidic range was effected at pH 2.7 with 0.1% aqueous formic acid and acetonitrile (contains 0.1% formic acid) as eluents; linear gradient from 10% acetonitrile to 95% acetonitrile. log P[a] is also referred to as log P(HCOOH). [b] LC-MS determination in the neutral range was effected at pH 7.8 with 0.001 molar aqueous ammonium hydrogencarbonate solution and acetonitrile as eluents; linear gradient from 10% acetonitrile to 95% acetonitrile. log P[b] is also referred to as log P(neutral). Calibration is effected with solutions of a homologous series of unbranched alkan-2-ones (having 3 to 16 carbon atoms) with known log P values (log P values determined on the basis of the retention times by linear interpolation between two successive alkanones).

Data set [2] has as its system Tetranychus urticae. Description: Tetranychus urticae - spray test, OP-resistant (bean leaf discs, 6 days). Format: in vivo. Conditions: 500 g/ha, after 6 days; for pest or weed control at 500 g/ha: Tetranychus urticae, foliar, 144 h, read-out: efficacy (spider mites killed). On the procedure: 5. Tetranychus urticae—Spray Test, OP-Resistant
Solvent: 78.0 parts by weight of acetone
• 1.5 parts by weight of dimethylformamide Emulsifier: alkylaryl polyglycol ether
To produce a suitable preparation of active compound, 1 part by weight of active compound is dissolved using the stated parts by weight of solvent and made up with water containing an emulsifier concentration of 1000 ppm until the desired concentration is attained. To produce further test concentrations, the preparation is diluted with emulsifier-containing water.
Discs of bean leaves (Phaseolus vulgaris) infested with all stages of the greenhouse red spider mite (Tetranychus urticae) are sprayed with an active compound preparation of the desired concentration.
After 6 days, the efficacy in % is determined. 100% means that all the spider mites have been killed; 0% means that no spider mites have been killed.

Where [3] appears, read: pH 2.7, HPLC, acidic range, pH 2.7, 0.1% aqueous formic acid and acetonitrile, read-out: log P(HCOOH).
[4] abbreviates: pH 2.7, Table 3, HPLC, acidic range, pH 2.7, read-out: logP[a].
Setting [5] is: pH 7.8, HPLC, neutral range, pH 7.8, 0.001 molar aqueous ammonium hydrogencarbonate and acetonitrile, read-out: log P(neutral).
Where [6] appears, read: pH 7.8, Table 3, HPLC, neutral range, pH 7.8, read-out: logP[b].
[7] abbreviates: pH 2.7, method [a], read-out: logP[a].
The mark [8] stands for this setting: pH 7.8, method [b], read-out: logP[b].

As for `Cc1cc(F)c(N2C(=O)CNC2=O)cc1SCC(F)(F)F` [IIa-1], the chromatographic logP in data set [1] (setting [3]) is 2.11; in data set [1] (setting [4]), 2.11; in data set [1] (setting [5]), 2.08; in data set [1] (setting [6]), 2.08. In addition, in data set [2], the pest or weed control at 500 g/ha amounted to 90%.

`Cc1cc(F)c(N2C(=O)CN(C(=O)NC3CC3)C2=S)cc1SCC(F)(F)F` [Ex. No. 2, N-Cyclopropyl-3-[2-fluoro-4-methyl-5-(2,2,2-trifluoroethylsulphanyl)phenyl]-4-oxo-2-thioxoimidazolidine-1-carboxamide]: the chromatographic logP in data set [1] (setting [3]) turned out to be 3.66; in data set [1] (setting [7]) it was 3.66; in data set [1] (setting [5]), 3.56; in data set [1] (setting [8]), 3.56.

For `Cc1cc(F)c(N2C(=O)N(C(=O)NC3CC3)C(C)(C)C2=O)cc1SCC(F)(F)F` [Ex. No. 74, N-Cyclopropyl-3-[2-fluoro-4-methyl-5-(2,2,2-trifluoroethylsulphanyl)phenyl]-5,5-dimethyl-2,4-dioxoimidazolidine-1-carboxamide], the chromatographic logP in data set [1] (setting [3]) worked out at 3.76; in data set [1] (setting [7]), 3.76; in data set [1] (setting [5]), 3.72; in data set [1] (setting [8]), 3.72. Besides, the pest or weed control at 500 g/ha in data set [2] is 100%.

Regarding `Cc1cc(C)c(N2C(=O)CN(C(=O)NC(C)(C)C)C2=O)cc1SCC(F)(F)F` [compound 33], in data set [1], the “logP[a]” value came to 3.86 and the “logP[b]” value was determined as 3.89. For the same molecule, the “efficacy (spider mites killed)” value in data set [2] is listed as 100%.

For the molecule `Cc1cc(Cl)c(N2C(=O)CN(C(=O)Nc3ccc(F)cc3)C2=O)cc1[S+]([O-])CC(F)(F)F` (racemic) [compound 100], in data set [1], the “logP[a]” value came out at 3.17 and the “logP[b]” value is given as 3.09. In addition, in data set [2], the “efficacy (spider mites killed)” value stood at 100%.

Take `COCCNC(=O)N1CC(=O)N(c2cc([S+]([O-])CC(F)(F)F)c(C)cc2F)C1=O` (racemic) [compound 82]: in data set [1], the “logP[a]” value is listed as 1.97 and the “logP[b]” value stood at 1.94. Further, the “efficacy (spider mites killed)” value in data set [2] is on record as 100%.

`Cc1cc(F)c(N2C(=O)CN(C(=O)NC(C)C)C2=S)cc1SCC(F)(F)F` [compound 5]: in data set [1], the “logP[a]” value came to 3.98 and the “logP[b]” value was 3.87.

As to `Cc1cc(F)c(N2C(=O)CN(C(=O)N(C)C)C2=O)cc1[S+]([O-])CC(F)(F)F` (stereo not drawn) [compound 133], in data set [1], the “logP[a]” value came out at 1.75 and the “logP[b]” value is 1.78. In addition, the “efficacy (spider mites killed)” value in data set [2] is listed as 100%.

`Cc1cc(C)c(N2C(=O)CN(C(=O)Nc3cccc(Cl)c3)C2=O)cc1SCC(F)(F)F` [compound 56]: in data set [1], the “logP[a]” value was determined as 4.32 and the “logP[b]” value stood at 4.19.

For the molecule `Cc1cc(F)c(N2C(=O)N(C(=O)NCC(F)(F)F)C(C)(C)C2=O)cc1SCC(F)(F)F` [compound 75], in data set [1], the “logP[a]” value is reported as 4.02 and the “logP[b]” value is given as 3.95.

As to `CCNC(=O)N1CC(=O)N(c2cc([S+]([O-])CC(F)(F)F)c(C)cc2C)C1=O` (stereo not drawn) [compound 32], in data set [1], the “logP[a]” value was 2.14 and the “logP[b]” value is 2.12. The “efficacy (spider mites killed)” value in data set [2] is given as 100%.

Regarding `CCNC(=O)N1C(=O)N(c2cc(SCC(F)(F)F)c(C)cc2F)C(=O)C1C` (stereo not drawn) [Ex. No. 24, N-Ethyl-3-[2-fluoro-4-methyl-5-(2,2,2-trifluoroethylsulphanyl)phenyl]-5-methyl-2,4-dioxoimidazolidine-1-carboxamide], the chromatographic logP amounted to 3.38 in data set [1] (setting [3]), 3.38 in data set [1] (setting [7]), 3.3 in data set [1] (setting [5]) and 3.3 in data set [1] (setting [8]). Also, in data set [2], the pest or weed control at 500 g/ha came to 100%.

Regarding `O=C(NCC(F)(F)F)N1CC(=O)N(c2cc([S+]([O-])CC(F)(F)F)c(Cl)cc2Cl)C1=O` (racemic) [compound 114], in data set [1], the “logP[a]” value amounted to 2.88 and the “logP[b]” value is 2.91. Moreover, in data set [2], the “efficacy (spider mites killed)” value came out at 100%.

As to `O=C(Nc1ccc(F)cc1)N1CC(=O)N(c2cc([S+]([O-])CC(F)(F)F)c(Cl)cc2Cl)C1=O` (racemic) [compound 116], in data set [1], the “logP[a]” value stood at 3.39 and the “logP[b]” value stood at 3.46. Moreover, the “efficacy (spider mites killed)” value in data set [2] is reported as 100%.

In the case of `Cc1cc(F)c(N2C(=O)CN(C(=O)N(C)CC(C)C)C2=O)cc1SCC(F)(F)F` [compound 124], in data set [1], the “logP[a]” value came to 3.53 and the “logP[b]” value is reported as 3.59.

`O=C(NCc1ccccc1)N1CC(=O)N(c2cc(SCC(F)(F)F)c(Cl)cc2Cl)C1=O` [compound 107]: in data set [1], the “logP[a]” value is 3.86 and the “logP[b]” value turned out to be 3.90.

As to `CCNC(=O)N1C(=O)N(c2cc(SCC(F)(F)F)c(C)cc2F)C(=O)C1(C)C` [compound 73], in data set [1], the “logP[a]” value came to 3.72 and the “logP[b]” value is on record as 3.70.

Consider `O=C(NC1CC1)N1CC(=O)N(c2cc(SCC(F)(F)F)c(Cl)cc2Cl)C1=O` [compound 104], for which, in data set [1], the “logP[a]” value amounted to 3.3 and the “logP[b]” value was 3.37. In data set [2], the “efficacy (spider mites killed)” value is on record as 100%.

With `Cc1cc(F)c(N2C(=O)CN(C(=O)Nc3ccccc3)C2=O)cc1SCC(F)(F)F` [compound 16], in data set [1], the “logP[a]” value came to 3.82 and the “logP[b]” value is listed as 3.71. For the same molecule, the “efficacy (spider mites killed)” value in data set [2] was 100%.

Regarding `Cc1cc(F)c(N2C(=O)CN(C(=O)Nc3ccccc3)C2=O)cc1[S+]([O-])CC(F)(F)F` (stereo not drawn) [compound 19], in data set [1], the “logP[a]” value is 2.89 and the “logP[b]” value was 2.83. In addition, the “efficacy (spider mites killed)” value in data set [2] is 90%.

For the molecule `O=C(NCc1ccccc1)N1CC(=O)N(c2cc([S+]([O-])CC(F)(F)F)c(Cl)cc2Cl)C1=O` (racemic) [compound 115], in data set [1], the “logP[a]” value was found to be 3.23 and the “logP[b]” value worked out at 3.29. The “efficacy (spider mites killed)” value in data set [2] was 100%.

Regarding `Cc1cc(F)c(N2C(=O)NC(C)C2=O)cc1SCC(F)(F)F` (stereo not drawn) [IIa-3, 3-[2-Fluoro-4-methyl-5-(2,2,2-trifluoroethylsulphanyl)phenyl]-5-methylimidazolidine-2,4-dione], the chromatographic logP in data set [1] (setting [3]) was 2.34; in data set [1] (setting [4]), 2.34; in data set [1] (setting [5]), 2.31; in data set [1] (setting [6]) it was 2.31.

Turning to `Cc1cc(C)c([S+]([O-])CC(F)(F)F)cc1N1C(=O)CN(C(=O)NCC(C)C)C1=O` (stereo not drawn) [compound 35], in data set [1], the “logP[a]” value turned out to be 2.77 and the “logP[b]” value is listed as 2.76.

As to `Cc1cc(Cl)c(N2C(=O)CN(C(=O)Nc3ccccn3)C2=O)cc1SCC(F)(F)F` [compound 96], in data set [1], the “logP[a]” value amounted to 3.55 and the “logP[b]” value was 3.51.

On to `Cc1cc(F)c(N2C(=O)CN(C(=O)Nc3cccnc3)C2=O)cc1SCC(F)(F)F` [compound 17], for which, in data set [1], the “logP[a]” value is 2.37 and the “logP[b]” value is listed as 2.75.

For `Cc1cc(F)c(N2C(=O)NC(C)(C)C2=O)cc1SCC(F)(F)F` [IIa-5, 3-[2-Fluoro-4-methyl-5-(2,2,2-trifluoroethylsulphanyl)phenyl]-5,5-dimethylimidazolidine-2,4-dione], the chromatographic logP in data set [1] (setting [3]) came to 2.61; in data set [1] (setting [4]), 2.61; in data set [1] (setting [5]), 2.53; in data set [1] (setting [6]), 2.53.

`CCNC(=O)N1CC(=O)N(c2cc(SCC(F)(F)F)c(C)cc2F)C1=S` [Ex. No. 8]: in data set [1], the “logP[a]” value was 3.91 and the “logP[b]” value was determined as 3.86.

As for `Cc1cc(F)c(N2C(=O)CN(C(=O)NCC(C)C)C2=S)cc1SCC(F)(F)F` [compound 11], in data set [1], the “logP[a]” value was found to be 4.27 and the “logP[b]” value stood at 4.18.

Turning to `Cc1cc(C)c(N2C(=O)CN(C(=O)Nc3ccccn3)C2=O)cc1SCC(F)(F)F` [compound 95], in data set [1], the “logP[a]” value is on record as 3.47 and the “logP[b]” value turned out to be 3.42.

Turning to `Cc1cc(F)c(N2C(=O)CN(C(=O)NCC(F)(F)F)C2=O)cc1[S+]([O-])CC(F)(F)F` (single isomer, unassigned) [Ex. No. 135], in data set [1], the “logP[a]” value is 2.4 and the “logP[b]” value stood at 2.44.

On to `Cc1cc(C)c(N2C(=O)CN(C(=O)Nc3ccc(F)cc3)C2=O)cc1SCC(F)(F)F` [compound 93], for which, in data set [1], the “logP[a]” value is given as 3.95 and the “logP[b]” value is given as 3.86.

With `Cc1cc(Cl)c(N2C(=O)CN(C(=O)Nc3ccccn3)C2=O)cc1[S+]([O-])CC(F)(F)F` (racemic) [compound 119], in data set [1], the “logP[a]” value came to 2.65 and the “logP[b]” value was found to be 2.65.

The values are drawn from US10206398B2, “Five-membered C-N-attached aryl sulphide and aryl sulphoxide derivatives as pesticides” (BAYER CROPSCIENCE AKTIENGESELLSCHAFT, priority 2014, dated 2019).
